Measurements taken from patent US9695155B2, “Herbicidal substituted pyrimidinyloxy benzene compounds” (E. I. DU PONT DE NEMOURS AND COMPANY, priority 2013, dated 2017).

How the values were obtained:
[1] = system: pigweed; assay: Test A preemergence; assay type: in vivo, Amaranthus retroflexus
Outline: (§1)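 Injury scores run from 0, no effect, to 100, complete control, judged by eye against untreated plants roughly 10 days after treatment. Chemicals carried a surfactant in a non-phytotoxic solvent and went onto loam–sand soil preemergence or onto one- to two-leaf seedlings postemergence.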

[2] = system: wild oat; assay: Test C postemergence; assay type: in vivo, Avena fatua; conditions: for Plant response rating (0 to 100), Oat, Wild: 0 is no effect, 100 is complete control; for Oat, Wild plant response rating: 31 g ai/ha; for Oat, Wild plant response rating / Plant response rating, Oat, Wild: scale 0 to 100 (0 no effect, 100 complete control)
Outline: (§2)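 Rated visually on 0–100 (100 = complete control) after 13–15 days under glass. Treatments went onto freshly seeded loam/sand soil or onto emerged plants at the 1- to 4-leaf stage, using a surfactant-containing solvent formulation.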

[3] = system: large (Lg) crabgrass; assay: Test C postemergence; assay type: in vivo, Digitaria sanguinalis; conditions: for Plant response rating (0 to 100), Crabgrass, Large: 0 is no effect, 100 is complete control; for Crabgrass, Large plant response rating: 31 g ai/ha; for Crabgrass, Large plant response rating / Plant response rating, Crabgrass, Large: scale 0 to 100 (0 no effect, 100 complete control)
Outline: as §2

[4] = system: barnyardgrass; assay: Test C postemergence; assay type: in vivo, Echinochloa crus-galli; conditions: for Plant response rating (0 to 100), Barnyardgrass: 0 is no effect, 100 is complete control; for Barnyardgrass plant response rating / Plant response rating, Barnyardgrass: scale 0 to 100 (0 no effect, 100 complete control)
Outline: as §2

[5] = system: waterhemp; assay: Test C postemergence; assay type: in vivo, Amaranthus rudis; conditions: for Plant response rating (0 to 100), Waterhemp: 0 is no effect, 100 is complete control; for Waterhemp plant response rating: 31 g ai/ha; for Waterhemp plant response rating / Plant response rating, Waterhemp: scale 0 to 100 (0 no effect, 100 complete control)
Outline: as §2

[6] = system: pigweed; assay: Test A postemergence; assay type: in vivo, Amaranthus retroflexus
Outline: as §1

[7] = system: johnsongrass; assay: Test C postemergence; assay type: in vivo, Sorghum halepense; conditions: for Plant response rating (0 to 100), Johnsongrass: 0 is no effect, 100 is complete control; for Johnsongrass plant response rating: 31 g ai/ha; for Johnsongrass plant response rating / Plant response rating, Johnsongrass: scale 0 to 100 (0 no effect, 100 complete control)
Outline: as §2

[8] = system: giant foxtail; assay: Test A preemergence; assay type: in vivo, Setaria faberii
Outline: as §1

[9] = system: blackgrass; assay: Test C postemergence; assay type: in vivo, Alopecurus myosuroides; conditions: for Plant response rating (0 to 100), Blackgrass: 0 is no effect, 100 is complete control; for Blackgrass plant response rating / Plant response rating, Blackgrass: scale 0 to 100 (0 no effect, 100 complete control)
Outline: as §2

[10] = system: barnyardgrass; assay: Test A preemergence; assay type: in vivo, Echinochloa crus-galli
Outline: as §1

[11] = system: lambsquarters; assay: Test C postemergence; assay type: in vivo, Chenopodium album; conditions: for Plant response rating (0 to 100), Lambsquarters: 0 is no effect, 100 is complete control; for Lambsquarters plant response rating: 31 g ai/ha; for Lambsquarters plant response rating / Plant response rating, Lambsquarters: scale 0 to 100 (0 no effect, 100 complete control)
Outline: as §2

[12] = system: galium; assay: Test C postemergence; assay type: in vivo, Galium aparine; conditions: for Plant response rating (0 to 100), Galium: 0 is no effect, 100 is complete control; for Galium plant response rating: 31 g ai/ha; for Galium plant response rating / Plant response rating, Galium: scale 0 to 100 (0 no effect, 100 complete control)
Outline: as §2

[13] = system: oilseed rape; assay: Test C postemergence; assay type: in vivo, Brassica napus; conditions: for Plant response rating (0 to 100), Oilseed Rape: 0 is no effect, 100 is complete control; for Oilseed Rape plant response rating: 31 g ai/ha; for Oilseed Rape plant response rating / Plant response rating, Oilseed Rape: scale 0 to 100 (0 no effect, 100 complete control)
Outline: as §2

[14] = 31 g ai/ha, 0 to 100 scale where 0 is no effect and 100 is complete control, visual, approximately 10 days
[15] = postemergence, visual rating, 13 to 15 days
[16] = 125 g ai/ha, postemergence, visual rating
[17] = Postemergence, 62 g ai/ha, 13 to 15 days
[18] = 31 g ai/ha, postemergence, visual rating, 13 to 15 days
[19] = 31 g ai/ha, 0 to 100 scale, 0 no effect, 100 complete control
[20] = 125 g ai/ha, 0 to 100 scale where 0 is no effect and 100 is complete control
[21] = 500 g ai/ha, 0 to 100 scale where 0 is no effect and 100 is complete control
[22] = Postemergence, 31 g ai/ha, 13 to 15 days

Structure (SMILES): FC(F)Oc1cnn(-c2c(Cl)cccc2Oc2ncc(Cl)cn2)c1 [Compound 258]
- Plant response rating, Pigweed [1, 14]: 100
- Pigweed plant response rating (0 to 100 scale) ([1]; 125 g ai/ha): 100
- Plant response rating (0 to 100), Oat, Wild ([2]; 16 g ai/ha, postemergence): 5
- Oat, Wild plant response rating [2, 15]: 5
- Plant response rating, Oat, Wild [2, 16]: 15
- Plant response rating, Oat, Wild [2, 17]: 10
- Plant response rating (0 to 100), Crabgrass, Large ([3]; 16 g ai/ha, postemergence): 5
- Crabgrass, Large plant response rating [3, 15]: 5
- Plant response rating, Crabgrass, Large [3, 16]: 15
- Plant response rating, Crabgrass, Large [3, 17]: 10
- Plant response rating (0 to 100), Barnyardgrass ([4]; 16 g ai/ha, postemergence): 5
- Barnyardgrass plant response rating [4, 18]: 10
- Plant response rating, Barnyardgrass [4, 16]: 10
- Plant response rating, Barnyardgrass [4, 17]: 10
- Plant response rating (0 to 100), Waterhemp ([5]; 16 g ai/ha, postemergence): 65
- Waterhemp plant response rating [5, 15]: 70
- Plant response rating, Waterhemp [5, 16]: 90
- Plant response rating, Waterhemp [5, 17]: 80
- Plant response rating, Pigweed [6, 19]: 80
- Plant response rating, Pigweed ([6]; 125 g ai/ha, 0 to 100 scale, 0 no effect, 100 complete control): 100
- Plant response rating (0 to 100), Johnsongrass ([7]; 16 g ai/ha, postemergence): 0
- Johnsongrass plant response rating [7, 15]: 5
- Plant response rating, Johnsongrass [7, 16]: 5
- Plant response rating, Johnsongrass [7, 17]: 5
- Plant response rating, Foxtail, Giant [8, 14]: 60
- Foxtail, Giant plant response rating (0 to 100 scale) ([8]; 125 g ai/ha): 100
- Plant response rating (0 to 100), Blackgrass ([9]; 16 g ai/ha, postemergence): 0
- Blackgrass plant response rating [9, 18]: 5
- Plant response rating, Blackgrass [9, 16]: 10
- Plant response rating, Blackgrass [9, 17]: 5
- Plant response rating, Barnyardgrass [10, 14]: 50
- Barnyardgrass plant response rating (0 to 100 scale, 0 is no effect, 100 is complete control) ([10]; 125 g ai/ha): 90
- Plant response rating (0 to 100), Lambsquarters ([11]; 16 g ai/ha, postemergence): 50
- Lambsquarters plant response rating [11, 15]: 65
- Plant response rating, Lambsquarters [11, 16]: 90
- Plant response rating, Lambsquarters [11, 17]: 90
- Plant response rating (0 to 100), Galium ([12]; 16 g ai/ha, postemergence): 85
- Galium plant response rating [12, 15]: 90
- Plant response rating, Galium [12, 16]: 100
- Plant response rating, Galium [12, 17]: 95
- Plant response rating (0 to 100), Oilseed Rape ([13]; 16 g ai/ha, postemergence): 70
- Oilseed Rape plant response rating [13, 15]: 85
- Plant response rating, Oilseed Rape [13, 16]: 98
- Plant response rating, Oilseed Rape [13, 17]: 95

Structure (SMILES): FCc1cccc(Oc2ncc(F)cn2)c1-n1cc(I)cn1 [Compound 152]
- Plant response rating, Pigweed [1, 14]: 90
- Plant response rating, Pigweed [1, 20]: 90
- Plant response rating (0 to 100), Oat, Wild ([2]; 8 g ai/ha, postemergence): 0
- Plant response rating (0 to 100), Oat, Wild ([2]; 16 g ai/ha, postemergence): 0
- Oat, Wild plant response rating [2, 15]: 5
- Plant response rating (0 to 100), Crabgrass, Large ([3]; 8 g ai/ha, postemergence): 5
- Plant response rating (0 to 100), Crabgrass, Large ([3]; 16 g ai/ha, postemergence): 5
- Crabgrass, Large plant response rating [3, 15]: 5
- Plant response rating (0 to 100), Barnyardgrass ([4]; 4 g ai/ha, postemergence): 0
- Plant response rating (0 to 100), Barnyardgrass ([4]; 8 g ai/ha, postemergence): 0
- Plant response rating (0 to 100), Barnyardgrass ([4]; 16 g ai/ha, postemergence): 5
- Barnyardgrass plant response rating [4, 18]: 5
- Plant response rating (0 to 100), Waterhemp ([5]; 8 g ai/ha, postemergence): 15
- Plant response rating (0 to 100), Waterhemp ([5]; 16 g ai/ha, postemergence): 45
- Waterhemp plant response rating [5, 15]: 60
- Plant response rating, Pigweed [6, 19]: 0
- Pigweed plant response rating [6, 20]: 90
- Plant response rating (0 to 100), Johnsongrass ([7]; 8 g ai/ha, postemergence): 0
- Plant response rating (0 to 100), Johnsongrass ([7]; 16 g ai/ha, postemergence): 5
- Johnsongrass plant response rating [7, 15]: 5
- Plant response rating, Foxtail, Giant [8, 14]: 10
- Plant response rating, Foxtail, Giant [8, 20]: 100
- Plant response rating (0 to 100), Blackgrass ([9]; 4 g ai/ha, postemergence): 0
- Plant response rating (0 to 100), Blackgrass ([9]; 8 g ai/ha, postemergence): 0
- Plant response rating (0 to 100), Blackgrass ([9]; 16 g ai/ha, postemergence): 0
- Blackgrass plant response rating [9, 18]: 0
- Plant response rating, Barnyardgrass [10, 14]: 20
- Plant response rating, Barnyardgrass [10, 20]: 70
- Plant response rating (0 to 100), Lambsquarters ([11]; 8 g ai/ha, postemergence): 60
- Plant response rating (0 to 100), Lambsquarters ([11]; 16 g ai/ha, postemergence): 40
- Lambsquarters plant response rating [11, 15]: 80
- Plant response rating (0 to 100), Galium ([12]; 8 g ai/ha, postemergence): 15
- Plant response rating (0 to 100), Galium ([12]; 16 g ai/ha, postemergence): 35
- Galium plant response rating [12, 15]: 55
- Plant response rating (0 to 100), Oilseed Rape ([13]; 8 g ai/ha, postemergence): 5
- Plant response rating (0 to 100), Oilseed Rape ([13]; 16 g ai/ha, postemergence): 35
- Oilseed Rape plant response rating [13, 15]: 60

Structure (SMILES): Clc1cnc(Oc2cccc(Br)c2-n2cc(I)nn2)nc1 [Compound 117]
- Plant response rating, Pigweed [1, 20]: 100
- Pigweed plant response rating [1, 21]: 100
- Plant response rating (0 to 100), Oat, Wild ([2]; 16 g ai/ha, postemergence): 10
- Plant response rating, Oat, Wild [2, 16]: 20
- Plant response rating, Oat, Wild ([2]; Postemergence, 62 g ai/ha): 10
- Plant response rating (0 to 100), Crabgrass, Large ([3]; 16 g ai/ha, postemergence): 10
- Plant response rating, Crabgrass, Large [3, 16]: 20
- Plant response rating, Crabgrass, Large ([3]; Postemergence, 62 g ai/ha): 20
- Plant response rating (0 to 100), Barnyardgrass ([4]; 16 g ai/ha, postemergence): 5
- Plant response rating, Barnyardgrass [4, 16]: 10
- Plant response rating, Barnyardgrass [4, 22]: 5
- Plant response rating, Barnyardgrass ([4]; Postemergence, 62 g ai/ha): 5
- Plant response rating (0 to 100), Waterhemp ([5]; 16 g ai/ha, postemergence): 60
- Plant response rating, Waterhemp [5, 16]: 90
- Plant response rating, Waterhemp ([5]; Postemergence, 62 g ai/ha): 85
- Plant response rating, Pigweed [6, 21]: 100
- Plant response rating (0 to 100), Johnsongrass ([7]; 16 g ai/ha, postemergence): 0
- Plant response rating, Johnsongrass [7, 16]: 5
- Plant response rating, Johnsongrass ([7]; Postemergence, 62 g ai/ha): 5
- Plant response rating, Foxtail, Giant [8, 20]: 90
- Foxtail, Giant plant response rating [8, 21]: 100
- Plant response rating (0 to 100), Blackgrass ([9]; 16 g ai/ha, postemergence): 5
- Plant response rating, Blackgrass [9, 16]: 10
- Plant response rating, Blackgrass [9, 22]: 10
- Plant response rating, Blackgrass ([9]; Postemergence, 62 g ai/ha): 5
- Plant response rating, Barnyardgrass [10, 20]: 30
- Barnyardgrass plant response rating [10, 21]: 90
- Plant response rating (0 to 100), Lambsquarters ([11]; 16 g ai/ha, postemergence): 45
- Plant response rating, Lambsquarters [11, 16]: 75
- Plant response rating, Lambsquarters ([11]; Postemergence, 62 g ai/ha): 50
- Plant response rating (0 to 100), Galium ([12]; 16 g ai/ha, postemergence): 80
- Plant response rating, Galium [12, 16]: 80
- Plant response rating, Galium ([12]; Postemergence, 62 g ai/ha): 70
- Plant response rating (0 to 100), Oilseed Rape ([13]; 16 g ai/ha, postemergence): 25
- Plant response rating, Oilseed Rape [13, 16]: 70
- Plant response rating, Oilseed Rape ([13]; Postemergence, 62 g ai/ha): 60
